Laboratory results from the supplement of paper PMC10307832.

What was measured:
Experiment in all cases: relative viability (nuclei count vs DMSO), 5 days (fraction); higher = more cells survive
[1] = system: BEN
Method in brief: (§1)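 Lung cancer cell lines in 1536-well plates got either a single drug or a fixed anchor-drug dose together with five library-drug doses (not always all listed) in √10 steps, by pin tool, on the day after seeding. Nuclei were counted after 5 days, and relative viability is the treated-to-vehicle ratio of nuclei counts. Values are medians of duplicate plates.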

[2] = system: HOP-62
Method in brief: as §1

[3] = system: LXF-289
Method in brief: as §1

[4] = system: NCI-H650
Method in brief: as §1

[5] = system: HARA
Method in brief: as §1

[6] = system: LOU-NH91
Method in brief: as §1

[7] = system: HCC-78
Method in brief: as §1

[8] = system: SK-MES-1
Method in brief: as §1

[9] = system: NCI-H1563
Method in brief: as §1

[10] = system: COR-L 105
Method in brief: as §1

[11] = system: NCI-H2087
Method in brief: as §1

[12] = system: H3255
Method in brief: as §1

[13] = system: UMC-11
Method in brief: as §1

[14] = system: NCI-H1395
Method in brief: as §1

[15] = system: LC-2-ad
Method in brief: as §1

[16] = system: NCI-H1993
Method in brief: as §1

[17] = system: LU99A
Method in brief: as §1

[18] = system: SW 900
Method in brief: as §1

[19] = system: NCI-H2170
Method in brief: as §1

[20] = system: 201T
Method in brief: as §1

[21] = system: NCI-H2126
Method in brief: as §1

[22] = system: RERF-LC-KJ
Method in brief: as §1

[23] = system: EMC-BAC-2
Method in brief: as §1

Molecule `CN1CCN(CCOc2cc(OC3CCOCC3)c3c(Nc4c(Cl)ccc5c4OCO5)ncnc3c2)CC1` [Saracatinib] + Nc1nc2[nH]cc(CCc3ccc(C(=O)N[C@@H](CCC(=O)O)C(=O)O)cc3)c2c(=O)[nH]1 [Pemetrexed] (partner 0.2 µM) has a relative viability ([1]; first compound 0.02 µM) of 0.916, a relative viability ([1]; first compound 0.2 µM) of 0.824 and a relative viability ([1]; first compound 0.6325 µM) of 0.727. The relative viability ([1]; first compound 2 µM) was 0.667, the relative viability ([2]; first compound 0.02 µM) was 0.377 and the relative viability ([2]; first compound 0.2 µM) was 0.33. For the same molecule, the relative viability ([2]; first compound 0.6325 µM) was 0.332, the relative viability ([2]; first compound 2 µM) was 0.375 and the relative viability ([3]; first compound 0.02 µM) was 0.875. The relative viability ([3]; first compound 0.2 µM) was 0.902, the relative viability ([3]; first compound 0.6325 µM) was 0.985 and the relative viability ([3]; first compound 2 µM) was 1. It also gave a relative viability ([4]; first compound 0.02 µM) of 0.962, a relative viability ([4]; first compound 0.2 µM) of 0.903 and a relative viability ([4]; first compound 0.6325 µM) of 0.884. For the same molecule, the relative viability ([4]; first compound 2 µM) was 0.874, the relative viability ([5]; first compound 0.02 µM) was 0.268 and the relative viability ([5]; first compound 0.2 µM) was 0.266. For the same molecule, the relative viability ([5]; first compound 0.6325 µM) was 0.191, the relative viability ([5]; first compound 2 µM) was 0.213 and the relative viability ([6]; first compound 0.02 µM) was 0.397. The relative viability ([6]; first compound 0.2 µM) was 0.417, the relative viability ([6]; first compound 0.6325 µM) was 0.472 and the relative viability ([6]; first compound 2 µM) was 0.457. It also gave a relative viability ([7]; first compound 0.02 µM) of 0.916, a relative viability ([7]; first compound 0.6325 µM) of 0.925 and a relative viability ([7]; first compound 2 µM) of 0.841. For the same molecule, the relative viability ([8]; first compound 0.02 µM) was 0.923, the relative viability ([8]; first compound 0.2 µM) was 0.905 and the relative viability ([8]; first compound 0.6325 µM) was 0.886. For the same molecule, the relative viability ([8]; first compound 2 µM) was 0.466, the relative viability ([9]; first compound 0.02 µM) was 0.946 and the relative viability ([9]; first compound 0.2 µM) was 0.576. It also gave a relative viability ([9]; first compound 0.6325 µM) of 0.742, a relative viability ([9]; first compound 2 µM) of 0.592 and a relative viability ([10]; first compound 0.02 µM) of 1.2. It also gave a relative viability ([10]; first compound 0.2 µM) of 1.21, a relative viability ([10]; first compound 0.6325 µM) of 1.26 and a relative viability ([10]; first compound 2 µM) of 0.717. The relative viability ([11]; first compound 0.02 µM) was 0.63, the relative viability ([11]; first compound 0.2 µM) was 0.722 and the relative viability ([11]; first compound 0.6325 µM) was 0.574. For the same molecule, the relative viability ([11]; first compound 2 µM) was 0.707, the relative viability ([12]; first compound 0.02 µM) was 0.591 and the relative viability ([12]; first compound 0.2 µM) was 0.514. For the same molecule, the relative viability ([12]; first compound 0.6325 µM) was 0.521, the relative viability ([12]; first compound 2 µM) was 0.421 and the relative viability ([13]; first compound 0.02 µM) was 0.809. It also gave a relative viability ([13]; first compound 0.2 µM) of 0.699, a relative viability ([13]; first compound 0.6325 µM) of 0.898 and a relative viability ([13]; first compound 2 µM) of 0.607. For the same molecule, the relative viability ([14]; first compound 0.02 µM) was 0.896, the relative viability ([14]; first compound 0.2 µM) was 0.769 and the relative viability ([14]; first compound 0.6325 µM) was 0.846. It also gave a relative viability ([14]; first compound 2 µM) of 0.612, a relative viability ([15]; first compound 0.02 µM) of 0.286 and a relative viability ([15]; first compound 0.2 µM) of 0.282. For the same molecule, the relative viability ([15]; first compound 0.6325 µM) was 0.268, the relative viability ([15]; first compound 2 µM) was 0.27 and the relative viability ([16]; first compound 0.02 µM) was 0.626. For the same molecule, the relative viability ([16]; first compound 0.2 µM) was 0.519, the relative viability ([16]; first compound 0.6325 µM) was 0.642 and the relative viability ([16]; first compound 2 µM) was 0.471. It also gave a relative viability ([17]; first compound 0.02 µM) of 0.205, a relative viability ([17]; first compound 0.2 µM) of 0.214 and a relative viability ([17]; first compound 0.6325 µM) of 0.173. It also gave a relative viability ([17]; first compound 2 µM) of 0.165, a relative viability ([18]; first compound 0.02 µM) of 0.559 and a relative viability ([18]; first compound 0.2 µM) of 0.361. It also gave a relative viability ([18]; first compound 0.6325 µM) of 0.506, a relative viability ([18]; first compound 2 µM) of 0.408 and a relative viability ([19]; first compound 0.02 µM) of 0.25. It also gave a relative viability ([19]; first compound 0.2 µM) of 0.253, a relative viability ([19]; first compound 0.6325 µM) of 0.277 and a relative viability ([19]; first compound 2 µM) of 0.202. The relative viability ([20]; first compound 0.02 µM) was 0.312, the relative viability ([20]; first compound 0.2 µM) was 0.337 and the relative viability ([20]; first compound 0.6325 µM) was 0.341. For the same molecule, the relative viability ([20]; first compound 2 µM) was 0.336, the relative viability ([21]; first compound 0.02 µM) was 0.772 and the relative viability ([21]; first compound 0.2 µM) was 0.664. The relative viability ([21]; first compound 0.6325 µM) was 0.659, the relative viability ([21]; first compound 2 µM) was 0.558 and the relative viability ([22]; first compound 0.02 µM) was 0.477. The relative viability ([22]; first compound 0.2 µM) was 0.463, the relative viability ([22]; first compound 0.6325 µM) was 0.47 and the relative viability ([22]; first compound 2 µM) was 0.441. The relative viability ([23]; first compound 0.02 µM) was 0.456, the relative viability ([23]; first compound 0.2 µM) was 0.373 and the relative viability ([23]; first compound 0.6325 µM) was 0.44. For the same molecule, the relative viability ([23]; first compound 2 µM) was 0.442.
